Test results reported in PubChem BioAssay AID330 (DTP/NCI, 2004).
Several values for one entry are separate records, joined by “and”; a condition that tells them apart may be missing. Equal values may be shown once. Toxic doses and inconclusive results are not listed. The calls were made as follows: active = survival T/C of 150% or more; inactive = T/C below 125% in these data.

System: P388 leukemia ip, CD2F1 mice, survival T/C
Assay: NCI In Vivo Anticancer Drug Screen. Data for tumor model P388 Leukemia (intraperitoneal) in CD2F1 (CDF1) mice
Conditions: endpoint: median survival time, higher = longer survival
Outline: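 Mice carrying the transplanted tumor received test compound or vehicle. Survival was recorded in each group, and the value is the treated-group measurement divided by that of the vehicle-treated control group.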

[1] = dose: 6.25 mg/kg/injection, schedule: Q01DX009 (ip), vehicle: saline with Tween-80
[2] = dose: 25.0 mg/kg/injection, schedule: Q01DX009 (ip), vehicle: saline with Tween-80
[3] = dose: 50.0 mg/kg/injection, schedule: Q01DX005 (ip), vehicle: saline with Tween-80
[4] = dose: 100.0 mg/kg/injection, schedule: Q01DX005 (ip), vehicle: saline with Tween-80
[5] = dose: 100.0 mg/kg/injection, schedule: Q01DX001 (ip), vehicle: Klucel (hydroxypropylcellulose) (HPC)
[6] = dose: 200.0 mg/kg/injection, schedule: Q01DX001 (ip), vehicle: Klucel (hydroxypropylcellulose) (HPC)
[7] = dose: 400.0 mg/kg/injection, schedule: Q01DX001 (ip), vehicle: Klucel (hydroxypropylcellulose) (HPC)
[8] = dose: 60.0 mg/kg/injection, schedule: Q01DX005 (ip), vehicle: saline with Tween-80
[9] = dose: 120.0 mg/kg/injection, schedule: Q01DX005 (ip), vehicle: saline with Tween-80
[10] = dose: 240.0 mg/kg/injection, schedule: Q01DX005 (ip), vehicle: saline with Tween-80
[11] = dose: 100.0 mg/kg/injection, schedule: Q01DX001 (ip), vehicle: saline
[12] = dose: 200.0 mg/kg/injection, schedule: Q01DX001 (ip), vehicle: saline
[13] = dose: 100.0 mg/kg/injection, schedule: Q01DX009 (ip), vehicle: saline with Tween-80
[14] = dose: 200.0 mg/kg/injection, schedule: Q01DX009 (ip), vehicle: saline with Tween-80
[15] = dose: 1.56 mg/kg/injection, schedule: Q01DX009 (ip), vehicle: saline
[16] = dose: 100.0 mg/kg/injection, schedule: Q01DX009 (ip), vehicle: saline

Measured: T/C

COc1ccccc1NC(=O)N(CCCl)N=O
active: dose: 3.0 mg/kg/injection, schedule: Q04DX003 (ip), vehicle: saline with Tween-80 154 % of control | dose: 6.0 mg/kg/injection, schedule: Q04DX003 (ip), vehicle: saline with Tween-80 168 % of control | [1] 163 % of control | dose: 6.25 mg/kg/injection, schedule: Q04DX003 (ip), vehicle: saline with Tween-80 168 % of control | dose: 12.5 mg/kg/injection, schedule: Q01DX009 (ip), vehicle: saline with Tween-80 200 % of control | dose: 12.5 mg/kg/injection, schedule: Q04DX003 (ip), vehicle: saline with Tween-80 190 % of control | dose: 16.5 mg/kg/injection, schedule: Q04DX003 (ip), vehicle: saline with Tween-80 152 % of control | dose: 25.0 mg/kg/injection, schedule: Q04DX003 (ip), vehicle: saline with Tween-80 272 % of control
inactive: [2] 95 % of control | dose: 37.5 mg/kg/injection, schedule: Q04DX003 (ip), vehicle: saline with Tween-80 123 % of control

CC(C)(C)NC(=O)N1C2C3CCC(C)(OC3(C)C)C21 (configuration not stated)
inactive: [3] 98 % of control | [4] 99 % of control

C[N+]1(CCC(=O)c2ccccc2)CCCCC1
inactive: dose: 12.5 mg/kg/injection, schedule: Q01DX009 (ip), vehicle: saline 97 % of control | dose: 25.0 mg/kg/injection, schedule: Q01DX009 (ip), vehicle: saline 107 % of control

CCC(=O)/C=C/c1cc(OC)c(OC)c(OC)c1
inactive: [5] 107 % of control | [6] 107 % of control | [7] 100 % of control

O=C1C=CC(=O)N1n1cccc1
inactive: dose: 6.25 mg/kg/injection, schedule: Q01DX009 (ip), vehicle: Klucel (hydroxypropylcellulose) (HPC) 105 % of control | dose: 12.5 mg/kg/injection, schedule: Q01DX009 (ip), vehicle: Klucel (hydroxypropylcellulose) (HPC) 98 % of control | dose: 25.0 mg/kg/injection, schedule: Q01DX009 (ip), vehicle: Klucel (hydroxypropylcellulose) (HPC) 90 % of control

CC1(C)c2cccc(O)c2C(=O)C2C(O)=C3C(O)=C(C(N)=O)C(=O)CC3C(O)C21 (configuration not stated)
inactive: [8] 109 % of control | [9] 111 % of control | [10] 121 % of control

CCOC(=O)C(=C/C=C/N(C)C)C(=O)OCC
inactive: [11] 100 % of control | [12] 104 % of control

C=C1C(=O)C23OC2C1CCC(=O)C1(C)CC[C@H](OC(C)=O)C(C)(C)[C@H]1CC3=O (some centres not stated)
inactive: dose: 2.5 mg/kg/injection, schedule: Q01DX005 (ip), vehicle: Klucel (hydroxypropylcellulose) (HPC) 111 % of control | dose: 5.0 mg/kg/injection, schedule: Q01DX005 (ip), vehicle: Klucel (hydroxypropylcellulose) (HPC) 107 % of control | dose: 10.0 mg/kg/injection, schedule: Q01DX005 (ip), vehicle: Klucel (hydroxypropylcellulose) (HPC) 107 % of control

O=C1c2cc([N+](=O)[O-])cc3cc([N+](=O)[O-])cc(c23)C(=O)N1CCN1CCN(CCN2C(=O)c3cc([N+](=O)[O-])cc4cc([N+](=O)[O-])cc(c34)C2=O)CC1
inactive: dose: 100.0 mg/kg/injection, schedule: Q04DX002 (ip), vehicle: saline with Tween-80 100 % of control | dose: 200.0 mg/kg/injection, schedule: Q04DX002 (ip), vehicle: saline with Tween-80 97 % of control | dose: 400.0 mg/kg/injection, schedule: Q04DX002 (ip), vehicle: saline with Tween-80 94 % of control

C[Si]1(C)N[Si](C)(C)N[Si](C)(C)N1
inactive: dose: 50.0 mg/kg/injection, schedule: Q01DX009 (ip), vehicle: saline with Tween-80 103 % of control | [13] 95 % of control | [14] 108 % of control

CCC1C=Cc2ccccc2NC1 (configuration not stated)
inactive: [3] 100 % of control | [4] 94 % of control | dose: 200.0 mg/kg/injection, schedule: Q01DX005 (ip), vehicle: saline with Tween-80 98 % of control

CC1C[C@@H]2[C@H]([C@@H](O)C[C@@]3(C)[C@H]2CC[C@]3(O)C(=O)CF)[C@@]2(C)CCC(=O)C=C12 (some centres not stated)
inactive: [13] 100 % of control | dose: 100.0 mg/kg/injection, schedule: Q04DX003 (ip), vehicle: saline with Tween-80 109 % of control | [14] 95 % of control | dose: 200.0 mg/kg/injection, schedule: Q04DX003 (ip), vehicle: saline with Tween-80 109 % of control | dose: 400.0 mg/kg/injection, schedule: Q04DX003 (ip), vehicle: saline with Tween-80 100 % of control

C(=Nc1ccccc1-c1ccccc1N=Cc1ccccc1)c1ccccc1
inactive: [15] 100 % of control and 91 % of control | dose: 3.12 mg/kg/injection, schedule: Q01DX009 (ip), vehicle: saline 91 % of control | [1] 104 % of control | dose: 6.25 mg/kg/injection, schedule: Q01DX009 (ip), vehicle: saline 88 % of control and 93 % of control | [2] 86 % of control | [16] 96 % of control | dose: 200.0 mg/kg/injection, schedule: Q01DX009 (ip), vehicle: saline 89 % of control

CC1(C)N=C(Oc2ccc(Cl)cc2Cl)NC(=S)N1
inactive: [8] 95 % of control | [9] 97 % of control | [10] 95 % of control

Cc1ccc(OP(=O)(Oc2ccc(C)cc2)Oc2ccc(C)cc2)cc1.Cc1ccc(OP(=O)(Oc2ccc(C)cc2)Oc2ccc(C)cc2)cc1.[Cl][Ni][Cl]
inactive: dose: 12.5 mg/kg/injection, schedule: Q04DX003 (ip), vehicle: Klucel (hydroxypropylcellulose) (HPC) 102 % of control | dose: 25.0 mg/kg/injection, schedule: Q04DX003 (ip), vehicle: Klucel (hydroxypropylcellulose) (HPC) 100 % of control and 109 % of control and 114 % of control | dose: 50.0 mg/kg/injection, schedule: Q04DX003 (ip), vehicle: Klucel (hydroxypropylcellulose) (HPC) 100 % of control and 102 % of control

Cc1ccc(S(=O)(=O)N/N=C/c2c(Br)nc3n2CCS3)cc1
inactive: [5] 94 % of control | [6] 89 % of control | [7] 92 % of control

c1ccc2c(c1)ccc1c3ccccc3sc21
inactive: dose: 50.0 mg/kg/injection, schedule: Q01DX005 (ip), vehicle: Klucel (hydroxypropylcellulose) (HPC) 101 % of control | dose: 100.0 mg/kg/injection, schedule: Q01DX005 (ip), vehicle: Klucel (hydroxypropylcellulose) (HPC) 110 % of control | dose: 200.0 mg/kg/injection, schedule: Q01DX005 (ip), vehicle: Klucel (hydroxypropylcellulose) (HPC) 103 % of control

Cc1occ(Br)c(=O)c1O
inactive: dose: 50.0 mg/kg/injection, schedule: Q01DX005 (ip), vehicle: saline 104 % of control | dose: 100.0 mg/kg/injection, schedule: Q01DX005 (ip), vehicle: saline 103 % of control | dose: 200.0 mg/kg/injection, schedule: Q01DX005 (ip), vehicle: saline 103 % of control

O=C1NC(=O)C2(OC3c4ccccc4C=NN3C3=C2C(=O)CCC3)C(=O)N1 (configuration not stated)
inactive: dose: 60.0 mg/kg/injection, schedule: Q01DX005 (ip), vehicle: Klucel (hydroxypropylcellulose) (HPC) 98 % of control | dose: 120.0 mg/kg/injection, schedule: Q01DX005 (ip), vehicle: Klucel (hydroxypropylcellulose) (HPC) 97 % of control

C/C=C/C[P+](CC)(c1ccccc1)c1ccccc1
inactive: dose: 0.78 mg/kg/injection, schedule: Q01DX009 (ip), vehicle: saline 103 % of control | [15] 97 % of control | dose: 3.13 mg/kg/injection, schedule: Q01DX009 (ip), vehicle: saline 112 % of control

Cc1cc(O)c(C=O)c2c1C(=O)Oc1c(COC(=O)/C=C/C(=O)O)c(O)c(C(=O)O)c(C)c1O2
inactive: dose: 0.25 mg/kg/injection, schedule: Q01DX009 (ip), vehicle: saline with Tween-80 104 % of control | dose: 0.5 mg/kg/injection, schedule: Q01DX009 (ip), vehicle: saline with Tween-80 96 % of control | dose: 1.0 mg/kg/injection, schedule: Q01DX009 (ip), vehicle: saline with Tween-80 101 % of control | dose: 50.0 mg/kg/injection, schedule: Q01DX009 (ip), vehicle: saline 90 % of control | [16] 90 % of control

NC1[N-]C(C2CCCC[N-]2)CC2CCCCC21.O=[N+]([O-])O.O=[N+]([O-])O.[Cu+2] (configuration not stated)
inactive: dose: 6.25 mg/kg/injection, schedule: Q04DX002 (ip), vehicle: suspension in saline 103 % of control | dose: 12.5 mg/kg/injection, schedule: Q04DX002 (ip), vehicle: suspension in saline 111 % of control

NCCn1[nH]c(=O)c2cnccc2c1=O
inactive: [8] 95 % of control | [9] 100 % of control | [10] 95 % of control

O=C1OCCC1C(=O)c1ccccc1 (configuration not stated)
inactive: dose: 50.0 mg/kg/injection, schedule: Q01DX001 (ip), vehicle: saline 112 % of control | [11] 112 % of control | [12] 97 % of control
